Patent US20150218212A1, “FLUORINATED EPOXYKETONE-BASED TETRAPEPTIDE COMPOUNDS AND USES THEREOF AS PROTEASOME INHIBITORS” (FLUORINOV PHARMA INC., priority 2012, published 2015)

How the values were obtained:
MDA-MB-468 = experiment: NCI screening panel, MDA-MB-468 (Breast Cancer); assay type: cell-based, human
Protocol: (§1) Representative compounds of Formula I were screened using the National Cancer Institute (NCI) screening panel, which consists of a panel of human tumor cell lines, representing leukemia, melanoma, and cancers of the lung, colon, ovary, breast, prostate and renal system.
(§2) After 24 h, two plates of each cell line are fixed in situ with TCA, to represent a measurement of the cell population for each cell line at the time of drug addition (Tz). Experimental drugs are solubilised in dimethyl sulfoxide at 400-fold the desired final maximum test concentration and stored frozen prior to use. At the time of drug addition, an aliquot of frozen concentrate is thawed and diluted to twice the desired final maximum test concentration with complete medium containing 50 μg/mL gentamicin. Additional four, 10-fold or ½ log serial dilutions are made to provide a total of five drug concentrations plus control. Aliquots of 100 μl of these different drug dilutions are added to the appropriate microtiter wells already containing 100 μl of medium, resulting in the required final drug concentrations.
(§3) Following drug addition, the plates are incubated for an additional 48 h at 37° C., 5% CO2, 95% air, and 100% relative humidity. For adherent cells, the assay is terminated by the addition of cold TCA (trichloroacetic acid). Cells are fixed in situ by the gentle addition of 50 μl of cold 50% (w/v) TCA (final concentration, 10% TCA) and incubated for 60 minutes at 4° C. The supernatant is discarded, and the plates are washed five times with tap water and air dried. Sulforhodamine B (SRB) solution (100 μl) at 0.4% (w/v) in 1% acetic acid is added to each well, and plates are incubated for 10 minutes at room temperature. After staining, unbound dye is removed by washing five times with 1% acetic acid and the plates are air dried. Bound stain is subsequently solubilised with 10 mM trizma base, and the absorbance is read on an automated plate reader at a wavelength of 515 nm. For suspension cells, the methodology is the same except that the assay is terminated by fixing settled cells at the bottom of the wells by gently adding 50 μl of 80% TCA (final concentration, 16% TCA). Using the seven absorbance measurements [time zero, (Tz), control growth, (C), and test growth in the presence of drug at the five concentration levels (Ti)], the percentage growth is calculated at each of the drug concentrations levels. Percentage growth inhibition is calculated as: [(Ti−Tz)/(C−Tz)]×100 for concentrations for which Ti>/=Tz and [(Ti−Tz)/Tz]×100 for concentrations for which Ti<Tz.
(§4) Three dose response parameters are calculated for each experimental agent. Growth inhibition of 50% (GI50) is calculated from [(Ti−Tz)/(C−Tz)]×100=50, which is the drug concentration resulting in a 50% reduction in the net protein increase (as measured by SRB staining) in control cells during the drug incubation. The drug concentration resulting in total growth inhibition (TGI) is calculated from Ti=Tz. The LC50 (concentration of drug resulting in a 50% reduction in the measured protein at the end of the drug treatment as compared to that at the beginning) indicating a net loss of cells following treatment is calculated from [(Ti−Tz)/Tz]×100=−50. Values are calculated for each of these three parameters if the level of activity is reached. However, if the effect is not reached or is exceeded, the value for that parameter is expressed as greater or less than the maximum or minimum concentration tested.

MCF7 = experiment: NCI screening panel, MCF7 (Breast Cancer); assay type: cell-based, human
Protocol: as §1, §2, §3, §4

KMS-11 = experiment: Cell viability (MTS) assay, KMS-11; assay type: cell-based; settings: Homo sapiens; KMS-11, MTS, 72 hours, mean ± standard deviation
Protocol: Human multiple myeloma cell lines 8226, H929, JJN3, KMH11, KMS11, KMS18, LP1, MM1S, OPM2 and U266 were grown in Iscove modified Dulbecco's medium (IMDM). Human leukemia cell lines K562, OCI-AML2 and U937 were cultured in RPMI-1640 medium. Primary peripheral blood mononuclear cells were isolated from multiple myeloma patients by Ficoll density gradient centrifugation and bone marrow aspirates were obtained from multiple myeloma patients at the Princess Margaret Cancer Centre of the University Health Network (UHN; Toronto, ON, Canada). Primary cells were cultured in IMDM. The collection and use of human tissue for this study was approved by the UHN institutional ethics review board. All cell culture media were obtained from the Ontario Cancer Institute Tissue Culture Media Facility (Toronto, ON, Canada) and were supplemented with 10% fetal calf serum, […] (Hyclone, Logan, Utah). All cells were grown in a humidified incubator at 37° C. with 5% CO2.
Cellular viability was primarily assessed by 3-(4,5-dimethylthiazol-2-yl)-5-(3-carboxymethoxyphenyl)-2-(4-sulfophenyl)-2H-tetrazolium (MTS) assay according to the manufacturer's instructions (Promega; Madison, Wis.). Cells were first seeded at a density of 10,000 cells per well in tissue culture-treated 96-well plates. Two hours after seeding, cells were treated with compounds for 72 hours at concentrations as indicated. As a control, cells were treated with DMSO alone in every assay plate. Following treatment and the MTS assay, cell viability was independently confirmed by reading the optical density (O.D.) at 490 nm and by exclusion of trypan blue stain (Invitrogen; Burlington, ON, Canada). The viability of primary mononuclear cells was determined by staining with Annexin V.
Table 8 summarizes the data of representative compounds of Formula I for cell viability and CT-L proteasome activity with OCI-AML-2 and KMS-11 cell lines.

MDA-MB-231/ATCC = experiment: NCI screening panel, MDA-MB-231/ATCC (Breast Cancer); assay type: cell-based, human
Protocol: as §1, §2, §3, §4

SK-MEL-28 = experiment: NCI screening panel, SK-MEL-28 (Melanoma); assay type: cell-based, human
Protocol: as §1, §2, §3, §4

SF-295 = experiment: NCI screening panel, SF-295 (CNS Cancer); assay type: cell-based, human
Protocol: as §1, §2, §3, §4

Row | Compound | Log10GI50 (MDA-MB-468) | Log10LC50 (MDA-MB-468) | Log10TGI50 (MDA-MB-468) | Log10GI50 (MCF7) | Log10LC50 (MCF7) | Log10TGI50 (MCF7) | IC50 (KMS-11) | Log10GI50 (MDA-MB-231/ATCC) | Log10LC50 (MDA-MB-231/ATCC) | Log10TGI50 (MDA-MB-231/ATCC) | Log10GI50 (SK-MEL-28) | Log10LC50 (SK-MEL-28) | Log10TGI50 (SK-MEL-28) | Log10GI50 (SF-295) | Log10LC50 (SF-295) | Log10TGI50 (SF-295)
1 | CC(C)C[C@H](NC(=O)[C@H](COC(F)F)NC(=O)CN1CCOCC1)C(=O)N[C@@H](COC(F)F)C(=O)N[C@@H](Cc1ccccc1)C(=O)[C@@]1(C)CO1 [Example 4, (2S)-N-[(1S)-2-[[(1S)-1-benzyl-2-[(2R)-2-methyloxiran-2-yl]-2-oxo-ethyl]amino]-1-(difluoromethoxymethyl)-2-oxo-ethyl]-2-[[(2S)-3-(difluoromethoxy)-2-[(2-mor-pholinoacetyl)amino]propanoyl]amino]-4 methyl-pentanamide] | −7.35 | >−4.00 | −6.37 | <−8.00 | >−4.00 | −4.82 | 33.9 ± 2.11 nM | −7.45 | −4.14 | −6.37 | −7.35 | −4.79 | −6.62 | −7.48 | −5.22 | −6.60
2 | CC(C)C[C@H](NC(=O)[C@H](COC(F)F)NC(=O)[C@H](COC(F)F)NC(=O)[C@H](COC(F)F)NC(=O)CN1CCOCC1)C(=O)[C@@]1(C)CO1 [Example 17, (2S)-3-(difluoromethoxy)-N-[(1S)-1-(difluoromethoxymethyl)-2-[[(1S)-1-(difluoro-methoxymethyl)-2-[[(1S)-3-methyl-1-[(2R)-2-methyloxirane-2-carbonyl]butyl]amino]-2-oxo-ethyl]amino]-2-oxo-ethyl]-2-[(2-mor-pholinoacetyl)amino]-propanamide] | −7.04 | >−4.00 | −6.17 | −7.57 | >−4.00 | >−4.00 | 166 ± 13.4 nM | −6.87 | −4.25 | −6.10 | −6.97 | >−4.00 | −5.69 | −6.82 | −5.37 | −6.20
3 | CC(C)C[C@H](NC(=O)[C@H](COC(F)F)NC(=O)CN1CCOCC1)C(=O)N[C@@H](COC(F)F)C(=O)N[C@@H](CC(C)C)C(=O)[C@@]1(C)CO1 [Example 1, (2S)—N-[(1S)-1-(difluoromethoxymethyl)-2-[[(1S)-3-methyl-1-[(2R)-2-methyloxirane-2-carbonyl]butyl]amino]-2-oxo-ethyl]-2-[[(2S)-3-(difluoromethoxy)-2-[(2-morpholinoacetyl)amino]propanoyl]amino]-4-methyl-pentanamide] | −7.55 | >−4.00 | −6.89 | <−8.00 | >−4.00 | −5.18 | 26.6 ± 8.47 nM | −7.52 | >−4.00 | −6.76 | −7.56 | >−4.00 | −6.97 | −7.51 | −6.09 | −6.88
